Here are results for twelve compounds from patent US20250034200A1, “Prodrugs of Neurosteroid Analogs and Uses Thereof” (priority 2021, published 2025).

Each structure is given as a SMILES string. Structures can show the parent of a compound that is named as a salt. Where two headings read alike, the source gives them in different places.

Data set [1] is described as follows: Aqueous stability assay (HPLC, pseudo first-order half-life). The format is physicochemical. The settings on record: DPBS pH 7.0-7.3, 1 mg/mL, room temperature; for half-life at 1 mg/mL / half-life: buffer, read-out: PBS t1/2 (converted). The protocol:
Aqueous stability experiments were performed on an Agilent 1100 HPLC equipped with an Agilent 1200 autosampler. HPLC grade solvents were exclusively used during analysis, with acetonitrile being purchased from Sigma Aldrich, and water and formic acid provided by Fisher Scientific. […]
[…] All mixtures were then sonicated for 5 min or stirred until complete dissolution was achieved. Any precipitate observed in sample solutions was filtered with a PTFE syringe filter prior to analysis. Immediately after sample preparation, injection by the HPLC autosampler was performed, which was recorded as the initial time point (t=0 min). Samples were then kept in the autosampler at room temperature and injected at designated intervals without additional filtration or sample modification. Next, the area of the parent peak in each chromatogram was determined by automated integration in the Agilent ChemStation software. Pseudo first-order half-lives were then ascertained by calculating the percent of the parent compound remaining after each time point. Plots of time (x-axis) vs. the natural logarithm of percent parent remaining (y-axis) were subsequently constructed to determine the slope. Finally, the aqueous stability was evaluated using the following equation:
The HPLC conditions were as follows: injection volume, 1 μL; column temperature: 40° C.; detector: 254 nm; stationary phase: Zorbax Eclipse XDB-C18 (4.6×150 mm, 5 μm); flow rate: 1 mL/min; mobile phase: 80-95% acetonitrile in H2O (0.1% formic acid).

Data set [2] can be described thus: Plasma stability assay (LC-MS/MS). It counts as in vitro ADME. The settings on record: human plasma, 37° C., 3 μM. The procedure:
Procaine and procainamide were purchased from Sigma Aldrich. HPLC-grade acetonitrile, water, methanol, and formic acid were purchased from Fisher Scientific. Human plasma (Cat. No. […]2N) was obtained from BIOIVT, and PBS (1×Dulbecco's, pH 7.4) from Thermo Fisher Scientific.
Test compounds were dissolved in DMSO to make a stock solution of 10 mM and then diluted to 500 μM in buffer or 70% methanol. Human plasma was thawed at ambient temperature and aliquoted (994.0 μL) to a 1.5 mL Eppendorf tube in duplicates (vials A and B) for each compound. The plasma was incubated at 37° C. for 10 min in an incubator shaker at 150 RPM; the reaction was initiated by addition of the test compound (6.0 μL), followed by vortex mixing. The total reaction volume was 1000 μL, the final organic solvent concentrations were […] (when 70% methanol was used for dilution) and 0.03% DMSO, and the final concentration of the test compound was 3 μM. The spiked plasma samples were incubated at 37° C. for 4 h. The reactions were terminated at time point 0, 15, 30, 60, 120, 180, and 240 min by taking a 100 μL aliquot from the test incubation mixture and immediately quenching it by adding it into ice-cold acetonitrile or methanol (150 μL) containing 2 μM internal standard (ISTD), followed by vortex mixing. The ISTD was d5-7-ethoxy coumarin. The samples were then centrifuged at 15000 RPM for 25 min at 4° C., and the supernatant was transferred to an LC-MS vial for analysis by LC-MS/MS. Each time point was tested in duplicates followed by in-between blank washes to avoid carryover and to equilibrate the column.
Procaine (poor plasma stability) and procainamide (good plasma stability) were used as controls at the same concentration as that of the test compound. These controls were run in parallel to test the assay's competency. Matrix blank was prepared by adding acetonitrile or methanol containing ISTD to plasma samples without any of the test or control compounds. Also, an additional control sample was made to simply monitor compound degradation in PBS buffer.
Below is a summary of samples prepared for a given test compound in a typical plasma stability assay: • Test compound (TC): 994 μL human plasma+6.0 μL TC (Vial A) 994 μL human plasma+6.0 μL TC (Vial B) • Control: 596 μL human plasma+3.6 μL (procaine+procainamide) • Blank matrix: 500 μL PBS buffer+100 μL human plasma • Additional control: 142 μL PBS buffer+0.9 μL TC • Quenching mixture: 150 μL acetonitrile or methanol with ISTD (2 μM) • Final volume: 250 μL (100 μL from the incubation mixture+150 μL quenching mixture; final ISTD conc.: 1.2 μM)
LC-MS/MS analysis was performed using Agilent 1260 Infinity II HPLC, coupled with an Agilent G6460 triple quadrupole mass spectrometer (Agilent Technologies, USA). The data were acquired and processed using the Agilent 6460 Quantitative Analysis data processing software.
Reverse-phase HPLC separation for each compound was achieved on an Agilent InfinityLab Poroshell 120 C18 column (2.1×50 mm, 2.7 μm) with a mobile phase composed of methanol/water with 0.1% formic acid or acetonitrile/water with 0.1% formic acid at a flow rate of 0.5 mL/min. Each method was developed in the presence of the ISTD. The column temperature was maintained at 40° C. The detection was operated using the Agilent Jet-Stream electrospray positive ionization under the multiple reaction monitoring mode. The mass spec conditions were as follows: dwell time 100 ms; gas flow 10 L/min; nebulizer pressure 45 psi; delta EMV 200 V.
Plots of time (x-axis) vs. the natural logarithm of percent parent remaining (y-axis) were subsequently constructed to determine the slope. Finally, the plasma stability was evaluated using the following equation: […]

The mark [3] stands for this setting: read-out: Plasma t1/2 (converted).

Regarding `C/C(=N\OC(=O)NCCCN)[C@H]1CC[C@H]2[C@@H]3CCC4=CC(=O)CC[C@]4(C)[C@H]3CC[C@]12C` [32e, (8S,9S,10R,13S,14S,17S)-17-((E)-1-((((3-aminopropyl)carbamoyl)oxy)imino)ethyl)-10,13-dimethyl-1,2,6,7,8,9,10,11,12,13,14,15,16,17-tetradecahydro-3H-cyclopenta[a]phenanthren-3-one hydrochloride], in data set [1] (d (days)), the “PBS t1/2” value came to 120 days. In data set [1], the half-life at 1 mg/mL was 2880 h. With `C/C(=N\OC(=O)OCCN)[C@H]1CC[C@H]2[C@@H]3CCC4=CC(=O)CC[C@]4(C)[C@H]3CC[C@]12C` [32f, (8S,9S,10R,13S,14S,17S)-17-((E)-1-((((2-aminoethoxy)carbonyl)oxy)imino)ethyl)-10,13-dimethyl-1,2,6,7,8,9,10,11,12,13,14,15,16,17-tetradecahydro-3H-cyclopenta[a]phenanthren-3-one hydrochloride], the half-life at 1 mg/mL in data set [1] is 0.11 ± 0.01 h. Regarding `C/C(=N\OC(=O)N1CCC[C@H]1CN)[C@H]1CCC2[C@@H]3CCC4=CC(=O)CC[C@]4(C)[C@H]3CC[C@@]21C` (stereo partly drawn) [32h, ((2S)-1-(((((E)-1-((8S,9S,10R,13S,17S)-10,13-dimethyl-3-oxo-2,3,6,7,8,9,10,11,12,13,14,15,16,17-tetradecahydro-1H-cyclopenta[a]phenanthren-17-yl)ethylidene)amino)oxy)carbonyl)pyrrolidin-2-yl) methanaminium chloride], in data set [2] (setting [3]), the half-life at 3 µM was more than 4 h. For the same compound, the half-life at 1 mg/mL in data set [1] (d (days)) was more than 720 h.

As for `CNC[C@@H]1CCCN1C(=O)O/N=C(\C)[C@H]1CCC2[C@@H]3CCC4=CC(=O)CC[C@]4(C)[C@H]3CC[C@@]21C.Cl` (stereo partly drawn) [32k, 1-((2S)-1-(((((E)-1-((8S,9S,10R,13S,17S)-10,13-dimethyl-3-oxo-2,3,6,7,8,9,10,11,12,13,14,15,16,17-tetradecahydro-1H-cyclopenta[a]phenanthren-17-yl)ethylidene)amino)oxy)carbonyl)pyrrolidin-2-yl)-N-methylmethanaminium chloride], the half-life in data set [2] (setting [3]) was more than 4 h; in data set [1] (d (days)) it was more than 720 h. For `C/C(=N\OC(=O)N(C)C[C@@H]1CCCCN1)[C@H]1CCC2[C@@H]3CCC4=CC(=O)CC[C@]4(C)[C@H]3CC[C@@]21C.Cl` (stereo partly drawn) [32l, (8S,9S,10R,13S,17S)-10,13-dimethyl-17-((E)-1-(((methyl(((S)-piperidin-2-yl)methyl)carbamoyl)oxy)imino)ethyl)-1,2,6,7,8,9,10,11,12,13,14,15,16,17-tetradecahydro-3H-cyclopenta[a]phenanthren-3-one hydrochloride] the same measures were 6.8 h and 475 h. As for `C/C(=N\OC(=O)N(C)C[C@@H]1C[C@@H](O)CN1)[C@H]1CC[C@H]2[C@@H]3CCC4=CC(=O)CC[C@]4(C)[C@H]3CC[C@]12C.O=C(O)C(F)(F)F` [32m, (8S,9S,10R,13S,14S,17S)-17-((E)-1-((((((2S,4R)-4-hydroxypyrrolidin-2-yl)methyl)(methyl)carbamoyl)oxy)imino)ethyl)-10,13-dimethyl-1,2,6,7,8,9,10,11,12,13,14,15,16,17-tetradecahydro-3H-cyclopenta[a]phenanthren-3-one 2,2,2-trifluoroacetate], the half-life in data set [1] was 1.3 h. The same measure, in the same setting: the result for `C/C(=N\OC(=O)OC[C@@H]1CCCN1)[C@H]1CCC2[C@@H]3CCC4=CC(=O)CC[C@]4(C)[C@H]3CC[C@@]21C.Cl` (stereo partly drawn) [32n, (8S,9S,10R,13S,17S)-10,13-dimethyl-17-((E)-1-((((((S)-pyrrolidin-2-yl)methoxy)carbonyl)oxy)imino)ethyl)-1,2,6,7,8,9,10,11,12,13,14,15,16,17-tetradecahydro-3H-cyclopenta[a]phenanthren-3-one hydrochloride] reads 0.09 ± 0.01 h. With `C/C(=N\OC(=O)N(C)CCNCCF)[C@H]1CC[C@H]2[C@@H]3CCC4=CC(=O)CC[C@]4(C)[C@H]3CC[C@]12C.O=C(O)C(F)(F)F` [32o, (E)-2-((8S,9S,10R,13S,14S,17S)-10,13-dimethyl-3-oxo-2,3,6,7,8,9,10,11,12,13,14,15,16,17-tetradecahydro-1H-cyclopenta[a]phenanthren-17-yl)-11-fluoro-6-methyl-4-oxa-3,6,9-triazaundec-2-en-5-one 2,2,2-trifluoroacetate], in data set [2], the “Plasma t1/2” value is 2.2 h. The half-life at 1 mg/mL in data set [1] was 36.1 ± 2.4 h.

Turning to `CNCCN(CC(=O)O)C(=O)O/N=C(\C)[C@H]1CC[C@H]2[C@@H]3CCC4=CC(=O)CC[C@]4(C)[C@H]3CC[C@]12C.O=C(O)C(F)(F)F` [53g, N-(((((E)-1-((8S,9S,10R,13S,14S,17S)-10,13-dimethyl-3-oxo-2,3,6,7,8,9,10,11,12,13,14,15,16,17-tetradecahydro-1H-cyclopenta[a]phenanthren-17-yl)ethylidene)amino)oxy)carbonyl)-N-(2-(methylamino)ethyl)glycine 2,2,2-trifluoroacetate], in data set [1], the half-life is more than 24 h. On the same count and under the same terms, the same measure for `CNCCN(CCC(=O)O)C(=O)O/N=C(\C)[C@H]1CC[C@H]2[C@@H]3CCC4=CC(=O)CC[C@]4(C)[C@H]3CC[C@]12C.O=C(O)C(F)(F)F` [53h, 3-((((((E)-1-((8S,9S,10R,13S,14S,17S)-10,13-dimethyl-3-oxo-2,3,6,7,8,9,10,11,12,13,14,15,16,17-tetradecahydro-1H-cyclopenta[a]phenanthren-17-yl)ethylidene)amino)oxy)carbonyl)(2-(methylamino)ethyl)amino) propanoic acid 2,2,2-trifluoroacetate]: more than 24 h.

`C/C(=N\OC(=O)N(CCNC(C)(C)C)C(C)(C)C)[C@H]1CC[C@H]2[C@@H]3CCC4=CC(=O)CC[C@]4(C)[C@H]3CC[C@]12C.Cl` [54c, (E)-6-(tert-butyl)-2-((8S,9S,10R,13S,14S,17S)-10,13-dimethyl-3-oxo-2,3,6,7,8,9,10,11,12,13,14,15,16,17-tetradecahydro-1H-cyclopenta[a]phenanthren-17-yl)-10,10-dimethyl-4-oxa-3,6,9-triazaundec-2-en-5-one hydrochloride]: in data set [2] (2 h), the “Plasma % rmn at 2 h” value is recorded as 93%. Further, the half-life in data set [1] is more than 24 h. In the case of `C/C(=N\OC(=O)N(C)Cc1ccccn1)[C@H]1CC[C@H]2[C@@H]3CCC4=CC(=O)CC[C@]4(C)[C@H]3CC[C@]12C` [compound 36, (8S,9S,10R,13S,14S,17S)-10,13-dimethyl-17-((E)-1-(((methyl(pyridin-2-ylmethyl)carbamoyl)oxy)imino)ethyl)-1,2,6,7,8,9,10,11,12,13,14,15,16,17-tetradecahydro-3H-cyclopenta[a]phenanthren-3-one], the half-life in data set [2] (setting [3]) was 222 h.
